From US20240115587A1, “COMBINATION THERAPIES” (Kallyope, Inc., priority 2022, published 2024) come the findings set out here.

Structures can show the parent of a compound that is named as a salt.

In one assay the target is T1, human GPR119 (hGPR119) (Homo sapiens, UniProt Q8TDV5).
T1 construct: expressed in transfected cells
T1 sequence (Q8TDV5 1-335): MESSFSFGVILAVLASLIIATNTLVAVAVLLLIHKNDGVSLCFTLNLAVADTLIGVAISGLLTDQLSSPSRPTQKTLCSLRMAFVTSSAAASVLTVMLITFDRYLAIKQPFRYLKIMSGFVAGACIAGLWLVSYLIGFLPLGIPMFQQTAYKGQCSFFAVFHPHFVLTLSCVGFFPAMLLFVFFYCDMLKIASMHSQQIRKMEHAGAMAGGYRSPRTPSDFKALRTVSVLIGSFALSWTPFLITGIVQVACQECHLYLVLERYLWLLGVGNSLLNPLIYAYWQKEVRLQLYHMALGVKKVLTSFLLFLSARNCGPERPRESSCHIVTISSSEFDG
The assay can be described thus: cAMP accumulation assay, CHO-K1 cells stably expressing human GPR119. The assay is classed as cell-based. To be noted: cAMP HTRF, 60 minutes. On the procedure: CHO-K1 cells stably expressing human GPR119 (hGPR119) were prepared by transfection of a GPR119-carrying plasmid using Lipofectamine 2000 (following manufacturer instructions). A stable cell line was established using the limiting dilution method with geneticine selection. Assay-ready frozen (ARF) cells were prepared and used throughout the study.
The assay was performed in a 384-well plate format using the cAMP Gs dynamic assay kit from Cisbio. ARF cells expressing hGPR119 were thawed, washed and then resuspended in cAMP stimulation buffer at a cell density of 1.1×10^6 cells/mL. Cells were plated at a density of ˜10,000 cells/well (9 μL/well). Dose response curves for the tested compounds were prepared in a cAMP stimulation buffer, containing 0.1% Tween 80 at 4 fold the final concentration. The compounds were then transferred to the cell plates using BRAVO (3 μL/well) and the plates were incubated for 60 minutes at 37° C./5% CO2. Detection buffer (10 μL, prepared as described in the cAMP Gs dynamic kit) were added to each well, and the plates were incubated at ambient temperature for 1 hr.
RT-FRET was measured using a ClarioSTAR plate reader, calculating the ratio between emissions at 665 nm and 620 nm (HTRF ratio). The HTRF ratio for positive (Max) and negative (Min) controls were used to normalize HTRF data and generate values for % activity. EC50 and Max activity values were determined using a standard 4-parameter fit.

In assay [1] the test system is primary human ileal crypt cultures. Nature of the assay: GLP-1 secretion in human ileal crypt cultures. The following applies: 30 μM. The assay is classed as cell-based. As to the method:
The potential for the combination of a compound of Formula (A) and a compound of Formula (B) to induce gut hormone secretion from EECs was assessed using primary human ileal crypt cultures and compared to the effect of the individual agents.

Another assay deals with T2, human GPR40 (Homo sapiens, UniProt O14842).
T2 construct: host or cells: CHO-K1
T2 sequence (O14842 whole entry): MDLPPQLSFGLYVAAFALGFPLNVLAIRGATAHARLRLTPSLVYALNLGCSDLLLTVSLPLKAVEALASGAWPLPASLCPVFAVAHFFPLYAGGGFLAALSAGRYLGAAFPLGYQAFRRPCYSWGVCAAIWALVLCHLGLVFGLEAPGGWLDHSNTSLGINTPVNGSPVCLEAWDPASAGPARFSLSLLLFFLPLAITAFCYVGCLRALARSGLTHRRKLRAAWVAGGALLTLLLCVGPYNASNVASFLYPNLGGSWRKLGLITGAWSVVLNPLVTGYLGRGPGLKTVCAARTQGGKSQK
Nature of the assay: Inositol phosphate (IP1) accumulation assay, CHO-K1 cells expressing human GPR40. Type of assay: cell-based. The following applies: CHO hFFAR1 cells, IP1 HTRF, 90 min. On the procedure: CHO-K1 cells expressing human GPR40 were purchased from DiscoverX (95-1005C2). HEK293 cells expressing mouse FFAR1 were prepared using a mouse FFAR1 carrying plasmid purchased from OriGene Technologies (MR222997). The cells were transfected using Lipofectamine 2000 using manufacturer instructions and stable cell line was established from a single cell using geneticine selection. Assay ready frozen (ARF) cells were prepared and used throughout the study.
The assay was performed in a 384-well plate format using IP1 assay kit from Cis-Bio. ARF cells expressing FFAR1 (mouse and human) were thawed, washed and then plated in the appropriate medium (F12 based medium for CHO hFFAR1 and DMEM based medium for HEK293 mFFAR1—both were supplemented with 10% FBS and penicillin/streptomycin). 20 μL of 3.5×10^5 cells/mL were plated on a Poly D-Lysine coated 384-well white plate. The cells were then incubated for 16 hr at 37° C./5% CO2. After 16 hr the medium was removed and 15 μL of stimulation buffer containing the test compounds was added to the cells. The plates were then incubated for 90 min at 37° C./5% CO2. […]
[…] was measured using ClarioSTAR plate reader, calculating the ratio between emissions at 665 nm and 620 nm (HTRF ratio). […] EC50 and Max activity values were determined using a standard 4-parameter fit.
For orientation: TR-FRET usually uses a lanthanide donor and a delayed reading to cut background.

The test system of assay [2] is diet-induced-obese (DIO) mice. The assay can be described thus: 14-day weight loss in DIO mice. The assay is classed as in vivo. To be noted: BID, 13 or 14 days. On the procedure: The effects of a GPR40 Agonist of Formula (B) alone and in combination with a GPR119 Agonist of Formula (A) on body weight were assessed in diet-induced-obese (DIO) mice over 14 days.
Male C57BL/6J DIO mice, approximately 16 weeks old (Jackson Laboratories), were provided 60% high fat diet and water ad libitum. Animals were dosed BID (two times a day) with vehicle for an approximately 3-week until body weight had stabilized. At approximately 20 weeks of age, the mice were randomized into treatment groups (n=8/group) by body weight (range of 37 to 55 g) as well as food intake, and body weight change measured over a two-day baseline period. In order to maximize time on target throughout the day, compounds were administered BID, 8 h apart. Food intake and body weight were measured daily.

Assay [3] deals with male C57BL/6J mice. The assay can be described thus: Glucose excursion during oral glucose tolerance test in mice. The assay is classed as in vivo. The following applies: for % Reduction in 2-h glucose AUC vs. vehicle: OGTT, AUC 0 to 120 min, B6, B1, A14 30 mg/kg, linagliptin 0.3 mg/kg, metformin 300 mg/kg, dosed 1 h before glucose. On the procedure: The effects of GPR40 agonists of Formula (B) and a GPR119 agonist of Formula (A) alone and in combination on glucose excursion during an oral glucose tolerance test were assessed in mice. The effects of the combination of a compound of Formula (A) and compounds of Formula (B) with linagliptin (a DPP-4 inhibitor) or metformin were also assessed. Male C57BL/6J mice, approximately 10 weeks old, were acclimated to the facility and the oral dosing procedure. Mice were randomized into balanced treatment groups using body weight. Baseline glucose was assessed immediately before compound administration. […] Blood was assessed for glucose levels 20 min, 40 min, 60 min, and 120 min post D-(+)-glucose administration. The AUCs for blood glucose measures were calculated for each treatment from 0 to 120 min. Statistical analysis was performed on AUCs using one-way ANOVA versus vehicle, with Tukey's post-test.

The subject of assay [4] is male C57BL/6J mice. Nature of the assay: Gut hormone (GLP-1) secretion in mice, plasma GLP-1 after oral gavage. The following applies: 30 mg/kg of each compound. Type of assay: in vivo. On the procedure:
To determine whether activating two receptors simultaneously results in increased effects on hormone release, representative GPR40 agonists of Formula (B) were tested in combination with a GPR119 agonist of Formula (A). GLP-1 was measured at 5 and 17 h post dose. For the dose titration study, male C57BL/6J mice were acclimated to the facility and the dosing procedure. Mice were weighed and then fasted for 4 h. The mice were administered vehicle, a GPR40 agonist of Formula (B) at 30 mg/kg, a GPR119 agonist of Formula (A) at 30 mg/kg, and the GPR40 agonist of Formula (B) at 0.3, 1, 3, 10, and 30 mg/kg doses in combination with the GPR119 agonist of Formula (A) at 30 mg/kg by oral gavage. Blood was collected at 5 h post-dose or 17 h post-dose, and plasma was assayed for GLP-1.

One may read the EC50 as the concentration giving half of the maximal effect. The low end stands for an effect from little substance, the high end for a need for much substance.

On human GPR119 (hGPR119), `CCCc1cnc(N2CCC(CCCOc3cc(F)c(CC(=O)N4CC(C(=O)NCCC[N+](C)(C)C)C4)c(F)c3)CC2)nc1` [Compound A13, 3-[[1-[2-[2,6-difluoro-4-[3-[1-(5-propylpyrimidin-2-yl)-4-piperidyl]propoxy]phenyl]acetyl]azetidine-3-carbonyl|amino]propyl-trimethyl-ammonium formate] displayed an EC50 of 0.1 to 1 µM.
`COc1ccc(F)c([C@H]2CC[C@H](COc3cccc([C@H](C[P@](C)(=O)O)C4CC4)c3)CC2)c1` (single isomer, unassigned) [Compound B1]: the “GLP-1 (fold increase)” value was found to be 5.5 fold increase in assay [1], 1.9 fold increase with male C57BL/6J mice [4] (5 h post dose) and 1.4 fold increase in the assay on male C57BL/6J mice [4] (17 h post dose). For the same compound, the EC50 at human GPR40 is not above 0.05 µM. The “% Weight Loss vs Vehicle” value in assay [2] (Study 1, DIO mice) was 3.1%. Also, the “% Reduction in 2-h glucose AUC vs. vehicle” value (from here on “% Reduction”) with male C57BL/6J mice [3] is recorded as 14%.
With `COc1ccc(CCCC(C)(C)C)c(N2CCC(COc3cccc([C@@H](CP(C)(=O)O)C4CC4)c3)CC2)c1` [Compound B6, ((S)-2-cyclopropyl-2-(3-((1-(2-(4,4-dimethylpentyl)-5-methoxyphenyl)piperidin-4-yl)methoxy)phenyl)ethyl)(methyl)phosphinic acid], the “GLP-1 (fold increase)” value in assay [1] is 4.0 fold increase; with male C57BL/6J mice [4] (5 h post dose) it was 3.2 fold increase; in the assay with male C57BL/6J mice [4] (17 h post dose), 1.9 fold increase. Further, the “% Weight Loss vs Vehicle” value in assay [2] (Study 2, DIO mice) is given as 5.2%. Also, the “% Reduction” value with male C57BL/6J mice [3] is listed as 21%.
For the compound `CC#CCn1c(N2CCC[C@@H](N)C2)nc2c1c(=O)n(Cc1nc(C)c3ccccc3n1)c(=O)n2C` [linagliptin, reference compound], the “% Reduction” value in the assay on male C57BL/6J mice [3] is given as 17%.
For the compound `O=C(Cc1ccc(OCCCC2CCN(c3ncc(Cl)cn3)CC2)cc1F)N1CC(CNC[C@H](O)[C@@H](O)[C@H](O)[C@H](O)CO)C1` [Compound A14, 2-[4-[3-[1-(5-chloropyrimidin-2-yl)-4-piperidyl]propoxy]-2-fluoro-phenyl]-1-[3-[[[(2S,3R,4R,5R)-2,3,4,5,6-pentahydroxyhexyl]amino]methyl]azetidin-1-yl]ethanone], the “GLP-1 (fold increase)” value amounted to 1.9 fold increase in assay [1], 1.6 fold increase in the assay on male C57BL/6J mice [4] (5 h post dose) and 1.3 fold increase in the assay on male C57BL/6J mice [4] (17 h post dose). In addition, in assay [2] (Study 1, DIO mice), the “% Weight Loss vs Vehicle” value worked out at 2.5%. Besides, the “% Reduction” value with male C57BL/6J mice [3] is on record as 14%.
On human GPR119 (hGPR119), `CCc1cnc(N2CCC(CCCOc3ccc(CC(=O)N4CC(CNC[C@H](O)[C@H](O)[C@@H](O)[C@H](O)C(=O)O)C4)c(F)c3)CC2)nc1` [Compound A36, (2S,3R,4S,5S)-6-[[1-[2-[4-[3-[1-(5-ethylpyrimidin-2-yl)-4-piperidyl]propoxy]-2-fluoro-phenyl]acetyl]azetidin-3-yl]methylamino]-2,3,4,5-tetrahydroxy-hexanoic acid] had an EC50 not above 0.1 µM.
Take `CN(C)C(=N)N=C(N)N` [metformin, reference compound]: the post-prandial glucose excursion result with male C57BL/6J mice [3] (OGTT in mice) is reported as “suppressed post-prandial glucose excursion”. For the same compound, the “% Reduction” value with male C57BL/6J mice [3] amounted to 26%.
`COc1ccc(F)c([C@H]2CC[C@H](COc3cccc([C@@H](C[P@@](C)(=O)O)C4CC4)c3)CC2)c1` (single isomer, unassigned) [Compound B2] came in with an EC50 at human GPR40 of 0.05 to 0.25 µM.
As to `O=C(NCCCCS(=O)(=O)O)C1CN(C(=O)Cc2ccc(OCCCC3CCN(c4ncc(Cl)cn4)CC3)cc2F)C1` [Compound A65, 4-[[1-[2-[4-[3-[1-(5-chloropyrimidin-2-yl)-4-piperidyl]propoxy]-2-fluoro-phenyl]acetyl]azetidine-3-carbonyl]amino]butane-1-sulfonic acid], the EC50 at human GPR119 (hGPR119) lay in the range of 0.1 to 1 µM.
On to `COCc1cnc(N2CCC(CCCOc3ccc(CC(=O)N4CC(CNCCNC(=O)NC(CO)(CO)CO)C4)c(F)c3)CC2)nc1` [Compound A51], for which the EC50 on human GPR119 (hGPR119) lay within 0.1 to 1 µM.
